Measured values: patent US12077503B2, “Substituted cyclic amides and their use as herbicides” (FMC CORPORATION, priority 2015, dated 2024)

Columns and labels:
Type in all cases: in vivo
[1] = tested on: Kochia (Kochia scoparia); test: Test A preemergence
In short: (§1)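 Each rating is a visual injury score from 0 to 100 given about 10 d after treatment, judged against untreated controls kept alongside in the greenhouse. In loam soil–sand blend, seeds got a preemergence directed soil spray, while postemergence plants were 2 to 10 cm tall at spraying.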

[2] = tested on: barnyardgrass (Echinochloa crus-galli); test: Test A preemergence
In short: as §1

[3] = tested on: giant foxtail (Setaria faberii); test: Test A preemergence
In short: as §1

[4] = tested on: pigweed (Amaranthus retroflexus); test: Test A preemergence
[5] = tested on: ragweed (common ragweed, Ambrosia elatior); test: Test A preemergence
In short: as §1

[6] = tested on: ryegrass, Italian (Italian ryegrass, Lolium multiflorum); test: Test A preemergence
In short: as §1

[7] = tested on: Galium (catchweed bedstraw, Galium aparine); test: Test A postemergence
In short: as §1

[8] = tested on: Kochia (Kochia scoparia); test: Test A postemergence
In short: as §1

[9] = tested on: barnyardgrass (Echinochloa crus-galli); test: Test A postemergence
In short: as §1

[10] = tested on: blackgrass (Alopecurus myosuroides); test: Test A postemergence
In short: as §1

[11] = tested on: corn (Zea mays); test: Test A postemergence
In short: as §1

[12] = tested on: giant foxtail (Setaria faberii); test: Test A postemergence
In short: as §1

[13] = tested on: pigweed (Amaranthus retroflexus); test: Test A postemergence
In short: as §1

[14] = tested on: ragweed (common ragweed, Ambrosia elatior); test: Test A postemergence
In short: as §1

[15] = tested on: ryegrass, Italian (Italian ryegrass, Lolium multiflorum); test: Test A postemergence
In short: as §1

[16] = tested on: wheat (Triticum aestivum); test: Test A postemergence
In short: as §1

[17] = tested on: barnyardgrass (Echinochloa crus-galli); test: Test B flooded paddy test; conditions: 250 g ai/ha, Flood, 0 to 100 scale where 0 is no effect and 100 is complete control
In short: (§2)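 Percent control, visually estimated after 13–15 d in the greenhouse on a 0–100 basis, compares treated pots with untreated ones; compound was put into paddy water 3 cm above the soil when plants had two leaves.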

[18] = tested on: ducksalad (Heteranthera limosa); test: Test B flooded paddy test; conditions: 250 g ai/ha, Flood, 0 to 100 scale where 0 is no effect and 100 is complete control
In short: as §2

[19] = tested on: rice (Oryra sativa); test: Test B flooded paddy test; conditions: 250 g ai/ha, Flood, 0 to 100 scale where 0 is no effect and 100 is complete control
In short: as §2

[20] = tested on: sedge, umbrella (small-flower umbrella sedge, Cyperus difformis); test: Test B flooded paddy test; conditions: 250 g ai/ha, Flood, 0 to 100 scale where 0 is no effect and 100 is complete control
In short: as §2

[21] = 125 g ai/ha, preemergence, 0 to 100 scale (0 no effect, 100 complete control)
[22] = Preemergence, 500 g ai/ha, visual injury approx. 10 d
[23] = 125 g ai/ha, postemergence, visual injury rating on 0 to 100 scale (0 no effect, 100 complete control), approx. 10 d
[24] = 500 g ai/ha, postemergence, 0 to 100 scale, 0 no effect, 100 complete control

CN1C[C@H](c2ccc(F)c(Oc3ccccc3)c2)[C@@H](C(=O)Nc2ccccc2S(C)(=O)=O)C1=O [Compound 1143]
pest or weed control at 31 g/ha ([1]; Bassia scoparia, pre-emergence, 240 h, 31 g ai/ha, Preemergence, 0 to 100 scale where 0 is no effect and 100 is complete control, read-out: Kochia plant response rating): 0% | pest or weed control at 125 g/ha ([1]; Bassia scoparia, pre-emergence, 240 h, 125 g ai/ha, preemergence, 0 to 100 scale where 0 is no effect and 100 is complete control, approx. 10 d, read-out: Kochia plant response rating): 0% | pest or weed control at 31 g/ha ([2]; Echinochloa crus-galli, pre-emergence, 240 h, 31 g ai/ha, Preemergence, 0 to 100 scale where 0 is no effect and 100 is complete control, read-out: Barnyardgrass plant response rating): 0% | pest or weed control at 125 g/ha ([2]; Echinochloa crus-galli, pre-emergence, 240 h, 125 g ai/ha, preemergence, 0 to 100 scale where 0 is no effect and 100 is complete control, approx. 10 d, read-out: Barnyardgrass plant response rating): 40% | pest or weed control at 31 g/ha ([3]; Setaria faberi, pre-emergence, 240 h, 31 g ai/ha, Preemergence, 0 to 100 scale where 0 is no effect and 100 is complete control, read-out: Foxtail, Giant plant response rating): 20% | pest or weed control at 125 g/ha ([3]; Setaria faberi, pre-emergence, 240 h, 125 g ai/ha, preemergence, 0 to 100 scale where 0 is no effect and 100 is complete control, approx. 10 d, read-out: Foxtail, Giant plant response rating): 80% | pest or weed control at 31 g/ha ([4]; Amaranthus retroflexus, pre-emergence, 240 h, 31 g ai/ha, Preemergence, 0 to 100 scale where 0 is no effect and 100 is complete control, read-out: Pigweed plant response rating): 0% | pest or weed control at 125 g/ha ([4]; Amaranthus retroflexus, pre-emergence, 240 h, 125 g ai/ha, preemergence, 0 to 100 scale where 0 is no effect and 100 is complete control, approx. 10 d, read-out: Pigweed plant response rating): 0% | pest or weed control at 31 g/ha ([5]; Ambrosia artemisiifolia, pre-emergence, 240 h, 31 g ai/ha, Preemergence, 0 to 100 scale where 0 is no effect and 100 is complete control, read-out: Ragweed plant response rating): 0% | pest or weed control at 125 g/ha ([5]; Ambrosia artemisiifolia, pre-emergence, 240 h, 125 g ai/ha, preemergence, 0 to 100 scale where 0 is no effect and 100 is complete control, approx. 10 d, read-out: Ragweed plant response rating): 0% | pest or weed control at 31 g/ha ([6]; Lolium multiflorum, pre-emergence, 240 h, 31 g ai/ha, Preemergence, 0 to 100 scale where 0 is no effect and 100 is complete control, read-out: Ryegrass, Italian plant response rating): 0% | pest or weed control at 125 g/ha ([6]; Lolium multiflorum, pre-emergence, 240 h, 125 g ai/ha, preemergence, 0 to 100 scale where 0 is no effect and 100 is complete control, approx. 10 d, read-out: Ryegrass, Italian plant response rating): 0% | pest or weed control at 125 g/ha ([7]; Galium, post-emergence, 240 h, 125 g ai/ha, postemergence, visual injury on 0 to 100 scale (0 no effect, 100 complete control), approx. 10 d, read-out: Galium plant response rating): 0% | pest or weed control at 31 g/ha ([7]; Galium, post-emergence, 240 h, Postemergence, 31 g ai/ha, visual injury after approx. 10 d, 0 to 100 scale, 0 no effect, 100 complete control, read-out: Plant response rating, Galium): 0% | pest or weed control at 125 g/ha ([8]; Bassia scoparia, post-emergence, 240 h, 125 g ai/ha, postemergence, visual injury on 0 to 100 scale (0 no effect, 100 complete control), approx. 10 d, read-out: Kochia plant response rating): 0% | pest or weed control at 31 g/ha ([8]; Bassia scoparia, post-emergence, 240 h, Postemergence, 31 g ai/ha, visual injury after approx. 10 d, 0 to 100 scale, 0 no effect, 100 complete control, read-out: Plant response rating, Kochia): 0% | pest or weed control at 125 g/ha ([9]; Echinochloa crus-galli, post-emergence, 240 h, 125 g ai/ha, postemergence, visual injury on 0 to 100 scale (0 no effect, 100 complete control), approx. 10 d, read-out: Barnyardgrass plant response rating): 50% | pest or weed control at 31 g/ha ([9]; Echinochloa crus-galli, post-emergence, 240 h, Postemergence, 31 g ai/ha, visual injury after approx. 10 d, 0 to 100 scale, 0 no effect, 100 complete control, read-out: Plant response rating, Barnyardgrass): 0% | pest or weed control at 125 g/ha ([10]; Alopecurus myosuroides, post-emergence, 240 h, 125 g ai/ha, postemergence, visual injury on 0 to 100 scale (0 no effect, 100 complete control), approx. 10 d, read-out: Blackgrass plant response rating): 0% | pest or weed control at 31 g/ha ([10]; Alopecurus myosuroides, post-emergence, 240 h, Postemergence, 31 g ai/ha, visual injury after approx. 10 d, 0 to 100 scale, 0 no effect, 100 complete control, read-out: Plant response rating, Blackgrass): 0% | plant injury at 125 g/ha ([11]; Zea mays, post-emergence, 240 h, 125 g ai/ha, postemergence, visual injury on 0 to 100 scale (0 no effect, 100 complete control), approx. 10 d, read-out: Corn plant response rating): 0% | Corn plant response rating (crop injury, 0 = no effect, 100 = complete kill) at 31 g/ha ([11]; Zea mays, post-emergence, 240 h, Postemergence, 31 g ai/ha, visual injury after approx. 10 d, 0 to 100 scale, 0 no effect, 100 complete control): 0% | pest or weed control at 125 g/ha ([12]; Setaria faberi, post-emergence, 240 h, 125 g ai/ha, postemergence, visual injury on 0 to 100 scale (0 no effect, 100 complete control), approx. 10 d, read-out: Foxtail, Giant plant response rating): 40% | pest or weed control at 31 g/ha ([12]; Setaria faberi, post-emergence, 240 h, Postemergence, 31 g ai/ha, visual injury after approx. 10 d, 0 to 100 scale, 0 no effect, 100 complete control, read-out: Plant response rating, Foxtail, Giant): 0% | pest or weed control at 125 g/ha ([13]; Amaranthus retroflexus, post-emergence, 240 h, 125 g ai/ha, postemergence, visual injury vs untreated controls after approx. 10 d, 0 = no effect, 100 = complete control, read-out: Pigweed plant response rating (0 to 100 scale)): 20% | pest or weed control at 31 g/ha ([13]; Amaranthus retroflexus, post-emergence, 240 h, Postemergence, 31 g ai/ha, visual injury after approx. 10 d, 0 to 100 scale, 0 no effect, 100 complete control, read-out: Plant response rating, Pigweed): 0% | pest or weed control at 125 g/ha ([14]; Ambrosia artemisiifolia, post-emergence, 240 h, 125 g ai/ha, postemergence, visual injury vs untreated controls after approx. 10 d, 0 = no effect, 100 = complete control, read-out: Ragweed plant response rating (0 to 100 scale)): 0% | pest or weed control at 31 g/ha ([14]; Ambrosia artemisiifolia, post-emergence, 240 h, Postemergence, 31 g ai/ha, visual injury after approx. 10 d, 0 to 100 scale, 0 no effect, 100 complete control, read-out: Plant response rating, Ragweed): 0% | pest or weed control at 125 g/ha ([15]; Lolium multiflorum, post-emergence, 240 h, 125 g ai/ha, postemergence, visual injury vs untreated controls after approx. 10 d, 0 = no effect, 100 = complete control, read-out: Ryegrass, Italian plant response rating (0 to 100 scale)): 0% | pest or weed control at 31 g/ha ([15]; Lolium multiflorum, post-emergence, 240 h, Postemergence, 31 g ai/ha, visual injury after approx. 10 d, 0 to 100 scale, 0 no effect, 100 complete control, read-out: Plant response rating, Ryegrass, Italian): 0% | plant injury at 125 g/ha ([16]; Triticum aestivum, post-emergence, 240 h, 125 g ai/ha, postemergence, visual injury vs untreated controls after approx. 10 d, 0 = no effect, 100 = complete control, read-out: Wheat plant response rating (0 to 100 scale)): 0% | plant injury at 31 g/ha ([16]; Triticum aestivum, post-emergence, 240 h, Postemergence, 31 g ai/ha, visual injury after approx. 10 d, 0 to 100 scale, 0 no effect, 100 complete control, read-out: Plant response rating, Wheat): 0% | pest or weed control at 250 g/ha ([17]; Echinochloa crus-galli, read-out: Barnyardgrass plant response rating): 0% | pest or weed control at 250 g/ha ([18]; Heteranthera limosa, read-out: Ducksalad plant response rating): 0% | pest or weed control at 250 g/ha ([19]; Oryza sativa, read-out: Rice plant response rating): 0% | pest or weed control at 250 g/ha ([20]; Cyperus difformis, read-out: Sedge, Umbrella plant response rating): 0%

O=C1NCC(c2ccc(Br)cc2)C1C(=O)Nc1cccc(F)c1F (stereo not drawn) [Compound 446]
Plant response rating, Kochia [1, 21]: 50 | Kochia plant response rating (0 to 100 scale, 0 is no effect, 100 is complete control) [1, 22]: 50 | Plant response rating, Barnyardgrass [2, 21]: 90 | Barnyardgrass plant response rating (0 to 100 scale, 0 is no effect, 100 is complete control) [2, 22]: 90 | Plant response rating, Foxtail, Giant [3, 21]: 90 | Foxtail, Giant plant response rating (0 to 100 scale, 0 is no effect, 100 is complete control) [3, 22]: 90 | Plant response rating, Pigweed [4, 21]: 40 | Pigweed plant response rating (0 to 100 scale, 0 is no effect, 100 is complete control) [4, 22]: 60 | Plant response rating, Ragweed [5, 21]: 50 | Ragweed plant response rating (0 to 100 scale, 0 is no effect, 100 is complete control) [5, 22]: 50 | Plant response rating, Ryegrass, Italian [6, 21]: 20 | Ryegrass, Italian plant response rating (0 to 100 scale, 0 is no effect, 100 is complete control) [6, 22]: 60 | Galium plant response rating [7, 23]: 50 | Plant response rating, Galium [7, 24]: 50 | Kochia plant response rating [8, 23]: 60 | Plant response rating, Kochia [8, 24]: 60 | Barnyardgrass plant response rating [9, 23]: 80 | Plant response rating, Barnyardgrass [9, 24]: 90 | Blackgrass plant response rating [10, 23]: 50 | Plant response rating, Blackgrass [10, 24]: 50 | Corn plant response rating [11, 23]: 20 | Plant response rating, Corn [11, 24]: 30 | Foxtail, Giant plant response rating [12, 23]: 90 | Plant response rating, Foxtail, Giant [12, 24]: 90 | Pigweed plant response rating [13, 23]: 50 | Plant response rating, Pigweed [13, 24]: 60 | Ragweed plant response rating [14, 23]: 0 | Plant response rating, Ragweed [14, 24]: 20 | Ryegrass, Italian plant response rating [15, 23]: 20 | Plant response rating, Ryegrass, Italian [15, 24]: 30 | Wheat plant response rating [16, 23]: 0 | Plant response rating, Wheat [16, 24]: 50 | Plant response rating, Barnyardgrass ([17]; 13 to 15 d): 75 | Plant response rating, Ducksalad ([18]; 13 to 15 d): 100 | Plant response rating, Rice ([19]; 13 to 15 d): 0 | Plant response rating, Sedge, Umbrella ([20]; 13 to 15 d): 0
